In US12600709B2, “Nonpeptide somatostatin type 5 receptor agonists and uses thereof” (Crinetics Pharmaceuticals, Inc., priority 2019, dated 2026):
Like-named read-outs stand apart in the source and are kept apart here.

Tests used:
[1] = molecular target: T1, human somatostatin receptor subtype 5 (Homo sapiens, UniProt P35346); experiment: cAMP assay for SST5R (inhibition of cAMP in CHO-K1 cells); type: cell-based; settings: for EC50: inhibition of cAMP via human SST5 receptor, read-out: SST5 potency; for Fold selectivity for SST5 vs SST2: class symbols, SST5 receptor over SST2 receptor
T1 construct: expressed in transfected cells
T1 sequence (P35346 whole entry): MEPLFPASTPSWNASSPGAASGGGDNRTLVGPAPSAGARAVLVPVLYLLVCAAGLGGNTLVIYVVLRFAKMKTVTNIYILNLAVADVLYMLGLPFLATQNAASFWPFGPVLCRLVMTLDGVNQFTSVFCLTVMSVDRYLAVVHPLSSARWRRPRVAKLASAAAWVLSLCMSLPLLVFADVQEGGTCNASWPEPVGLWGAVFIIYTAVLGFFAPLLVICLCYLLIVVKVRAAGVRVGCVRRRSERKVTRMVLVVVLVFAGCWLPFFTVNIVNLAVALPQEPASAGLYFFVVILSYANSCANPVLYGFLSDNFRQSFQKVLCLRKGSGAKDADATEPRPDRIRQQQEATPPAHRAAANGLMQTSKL
Outline: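 CHO-K1 cells stably expressing human SSTR5 were treated 20 min at 37 °C with compounds plus 1.6 μM NKH477 in HBSS, 0.5 mM HEPES pH 7.4, 0.1% BSA, 0.2 mM IBMX. Lysate cAMP measured by HTRF against a standard curve; EC50 from cAMP-versus-concentration plots.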

[2] = molecular target: T2, human somatostatin receptor subtype 2 (Homo sapiens, UniProt P30874); experiment: cAMP assay for SST2R (inhibition of cAMP in CHO-K1 cells); type: cell-based; settings: Table B; inhibition of cAMP via human SST2 receptor; read-out: SST2 potency
T2 construct: expressed in transfected cells
T2 sequence (P30874 whole entry): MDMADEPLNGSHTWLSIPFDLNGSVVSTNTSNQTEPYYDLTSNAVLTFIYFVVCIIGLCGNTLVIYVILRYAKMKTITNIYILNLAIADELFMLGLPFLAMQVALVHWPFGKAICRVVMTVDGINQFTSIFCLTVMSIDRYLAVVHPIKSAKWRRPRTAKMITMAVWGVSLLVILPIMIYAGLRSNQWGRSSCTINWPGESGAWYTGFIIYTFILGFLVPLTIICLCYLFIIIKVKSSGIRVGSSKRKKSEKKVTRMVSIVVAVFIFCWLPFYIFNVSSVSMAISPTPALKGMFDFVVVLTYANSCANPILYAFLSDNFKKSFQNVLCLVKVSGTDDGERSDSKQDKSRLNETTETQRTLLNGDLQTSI
Outline: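 CHO-K1 cells stably expressing human SSTR2, plated 4 days prior, treated 20 min at 37° C with 1.6 μM NKH477 plus compound dilutions in HBSS/HEPES pH 7.4/0.1% BSA/0.2 mM IBMX. Lysate cAMP measured by HTRF against standard curve; EC50 from concentration-response.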

| Structure (SMILES) | EC50 ([1]; Table A) [µM] | Fold selectivity for SST5 vs SST2 ([1]; Table B) | EC50 ([1]; Table B) [µM] | EC50 [2] [µM] |
| --- | --- | --- | --- | --- |
| Cc1cc(F)cc(-c2cncc(C(=O)NC3CCC(F)(F)CC3)c2N2CC[C@](C)(N)C2)c1 [1-13, 4-[(3S)-3-amino-3-methylpyrrolidin-1-yl]-N-(4,4-difluorocyclohexyl)-5-(3-fluoro-5-methylphenyl)pyridine-3-carboxamide] | < 0.01 | +++ (+++=>500) | < 0.01 | 0.1 to 1 |
| COc1ncc(C(=O)N[C@@H](C)C2CC2)c(N2CC[C@](C)(N)C2)c1-c1cc(F)cc(C(F)(F)F)c1 [1-164, 4-[(3S)-3-amino-3-methylpyrrolidin-1-yl]-N-[(1S)-1-cyclopropylethyl]-5-[3-fluoro-5-(trifluoromethyl)phenyl]-6-methoxypyridine-3-carboxamide] | < 0.01 | +++ (+++=>500) | < 0.01 | 0.1 to 1 |
| COc1ncc(C(=O)N[C@@H](C)C2CC2)c(N2CC[C@](C)(N)C2)c1-c1cccc(OC(F)(F)F)c1 [1-154, 4-[(3S)-3-amino-3-methylpyrrolidin-1-yl]-N-[(1S)-1-cyclopropylethyl]-6-methoxy-5-[3-(trifluoromethoxy)phenyl]pyridine-3-carboxamide] | < 0.01 | +++ (+++=>500) | < 0.01 | > 1 |
| N#Cc1ncc(C(=O)NC23CC(C2)C3)c(N2CC[C@@](N)(CO)C2)c1-c1cc(F)cc(F)c1 [1-98, 4-[(3S)-3-amino-3-(hydroxymethyl)pyrrolidin-1-yl]-N-{bicyclo[1.1.1]pentan-1-yl}-6-cyano-5-(3,5-difluorophenyl)pyridine-3-carboxamide] | < 0.01 | ++ (++=100 to 499) | < 0.01 | 0.1 to 1 |
| C[C@H](NC(=O)c1cnc(C#N)c(-c2ccn(C)n2)c1N1CC[C@](C)(N)C1)C1CC1 [1-121, 4-[(3S)-3-amino-3-methylpyrrolidin-1-yl]-6-cyano-N-[(1S)-1-cyclopropylethyl]-5-(1-methyl-1H-pyrazol-3-yl)pyridine-3-carboxamide] | < 0.01 | +++ (+++=>500) | < 0.01 | > 1 |
| Cc1cc(F)cc(-c2cncc(C(=O)NC(C3CC3)C3CC3)c2N2CC[C@](C)(N)C2)c1 [1-25, 4-[(3S)-3-amino-3-methylpyrrolidin-1-yl]-N-(dicyclopropylmethyl)-5-(3-fluoro-5-methylphenyl)pyridine-3-carboxamide] | < 0.01 | +++ (+++=>500) | < 0.01 | 0.1 to 1 |
| C[C@H](NC(=O)c1cnc(C(F)(F)F)c(-c2cc(F)cc(F)c2)c1N1CC[C@H](N)C1)C1CC1 [1-199, 4-[(3S)-3-aminopyrrolidin-1-yl]-N-[(1S)-1-cyclopropylethyl]-5-(3,5-difluorophenyl)-6-(trifluoromethyl)pyridine-3-carboxamide] | < 0.01 | +++ (+++=>500) | < 0.01 | 0.1 to 1 |
| C[C@]1(N)CCN(c2c(C(=O)NC3CCC3)cnc(C#N)c2-c2cc(F)cc(F)c2)C1 [1-87, 4-[(3S)-3-amino-3-methylpyrrolidin-1-yl]-6-cyano-N-cyclobutyl-5-(3,5-difluorophenyl)pyridine-3-carboxamide] | < 0.01 | +++ (+++=>500) | < 0.01 | 0.1 to 1 |
| C[C@H](NC(=O)c1cnc(C#N)c(-c2cccc(OC(F)F)c2)c1N1CC[C@](C)(N)C1)C1CC1 [1-120, 4-[(3S)-3-amino-3-methylpyrrolidin-1-yl]-6-cyano-N-[(1S)-1-cyclopropylethyl]-5-[3-(difluoromethoxy)phenyl]pyridine-3-carboxamide] | < 0.01 | +++ (+++=>500) | < 0.01 | 0.01 to 0.1 |
| C[C@]1(N)CCN(c2c(C(=O)NCc3ncccn3)cnc(C#N)c2-c2cc(F)cc(F)c2)C1 [1-108, 4-[(3S)-3-amino-3-methylpyrrolidin-1-yl]-6-cyano-5-(3,5-difluorophenyl)-N-[(pyrimidin-2-yl)methyl]pyridine-3-carboxamide] | < 0.01 | +++ (+++=>500) | < 0.01 | > 1 |
| Cc1ncc(C(=O)N[C@@H](C)C2CC2)c(N2CC[C@](C)(N)C2)c1-c1cncc(F)c1 [1-160, 4-[(3S)-3-amino-3-methylpyrrolidin-1-yl]-N-[(1S)-1-cyclopropylethyl]-5′-fluoro-2-methyl-[3,3′-bipyridine]-5-carboxamide] | < 0.01 | +++ (+++=>500) | < 0.01 | 0.1 to 1 |
| Cc1cc(C)cc(NC(=O)c2cncc(-c3cc(C)cc(C)c3)c2N2CC[C@H](N)C2)c1 [1-1, 4-[(3S)-3-aminopyrrolidin-1-yl]-N,5-bis(3,5-dimethylphenyl)pyridine-3-carboxamide] | < 0.01 | ++ (++=100 to 499) | < 0.01 | 0.01 to 0.1 |

Second part, the compound after the results:

| EC50 ([1]; Table A) [µM] | Fold selectivity for SST5 vs SST2 ([1]; Table B) | EC50 ([1]; Table B) [µM] | EC50 [2] [µM] | Structure (SMILES) |
| --- | --- | --- | --- | --- |
| < 0.01 | +++ (+++=>500) | < 0.01 | > 1 | C[C@]1(N)CCN(c2c(C(=O)NC3CCCCCC3)ccnc2-c2cc(F)cc(F)c2)C1 [3-6, 3-[(3S)-3-amino-3-methylpyrrolidin-1-yl]-N-cycloheptyl-2-(3,5-difluorophenyl)pyridine-4-carboxamide] |
| < 0.01 | +++ (+++=>500) | < 0.01 | > 1 | COc1cc(-c2c(C)ncc(C(=O)NC3CCCC3)c2N2CC[C@](C)(N)C2)ccn1 [1-256, 4-[(3S)-3-amino-3-methylpyrrolidin-1-yl]-N-cyclopentyl-2′-methoxy-2-methyl-[3,4′-bipyridine]-5-carboxamide] |
| < 0.01 | +++ (+++=>500) | < 0.01 | > 1 | Cc1ncc(C(=O)NC2CCC(F)(F)CC2)c(N2CC[C@H](N)C2)c1-c1cc(F)cc(F)c1 [1-233, 4-[(3S)-3-aminopyrrolidin-1-yl]-N-(4,4-difluorocyclohexyl)-5-(3,5-difluorophenyl)-6-methylpyridine-3-carboxamide] |
| < 0.01 | +++ (+++=>500) | < 0.01 | 0.1 to 1 | C[C@H](NC(=O)c1cnc(C(F)(F)F)c(-c2cc(Cl)cc(Cl)c2)c1N1CC[C@H](N)C1)C1CC1 [1-215, 4-[(3S)-3-aminopyrrolidin-1-yl]-N-[(1S)-1-cyclopropylethyl]-5-(3,5-dichlorophenyl)-6-(trifluoromethyl)pyridine-3-carboxamide] |
| < 0.01 | + (+=10 to 99) | < 0.01 | 0.01 to 0.1 | Cc1ccc(F)c2[nH]c(-c3cncc(C(=O)N[C@@H](C)C(F)(F)F)c3N3CC[C@](C)(N)C3)nc12 [2-30, 4-[(3S)-3-amino-3-methylpyrrolidin-1-yl]-5-(7-fluoro-4-methyl-1H-1,3-benzodiazol-2-yl)-N-[(2S)-1,1,1-trifluoropropan-2-yl]pyridine-3-carboxamide] |
| < 0.01 | +++ (+++=>500) | < 0.01 | 0.01 to 0.1 | COc1ncc(C(=O)N[C@@H](C)C2CC2)c(N2CC[C@](C)(N)C2)c1-c1cc(F)cc(Cl)c1 [1-229, 4-[(3S)-3-amino-3-methylpyrrolidin-1-yl]-5-(3-chloro-5-fluorophenyl)-N-[(1S)-1-cyclopropylethyl]-6-methoxypyridine-3-carboxamide] |
| < 0.01 | +++ (+++=>500) | < 0.01 | 0.1 to 1 | C[C@]1(N)CCN(c2c(C(=O)NC34CC(F)(C3)C4)cnc(C(F)(F)F)c2-c2cc(F)cc(F)c2)C1 [1-217, 4-[(3S)-3-amino-3-methylpyrrolidin-1-yl]-5-(3,5-difluorophenyl)-N-{3-fluorobicyclo[1.1.1]pentan-1-yl}-6-(trifluoromethyl)pyridine-3-carboxamide] |
| < 0.01 | +++ (+++=>500) | < 0.01 | > 1 | C[C@]1(N)CCN(c2c(C(=O)NC3CCCCC3)ccnc2-c2cc(F)cc(F)c2)C1 [3-2, 3-[(3S)-3-amino-3-methylpyrrolidin-1-yl]-N-cyclohexyl-2-(3,5-difluorophenyl)pyridine-4-carboxamide] |
| < 0.01 | +++ (+++=>500) | < 0.01 | > 1 | C[C@H](NC(=O)c1ncc(Cl)c(-c2cc(F)cc(F)c2)c1N1CC[C@](C)(N)C1)C1CC1 [4-1, 3-[(3S)-3-amino-3-methylpyrrolidin-1-yl]-5-chloro-N-[(1S)-1-cyclopropylethyl]-4-(3,5-difluorophenyl)pyridine-2-carboxamide] |
| < 0.01 | +++ (+++=>500) | < 0.01 | 0.1 to 1 | COc1ncc(C(=O)NCc2ccon2)c(N2CC[C@](C)(N)C2)c1-c1cc(F)cc(Cl)c1 [1-238, 4-[(3S)-3-amino-3-methylpyrrolidin-1-yl]-5-(3-chloro-5-fluorophenyl)-6-methoxy-N-[(1,2-oxazol-3-yl)methyl]pyridine-3-carboxamide] |
| < 0.01 | +++ (+++=>500) | < 0.01 | > 1 | Cc1ncc(C(=O)NC23CC(F)(C2)C3)c(N2CC[C@H](N)C2)c1-c1cc(F)cc(Cl)c1 [1-278, 4-[(3S)-3-aminopyrrolidin-1-yl]-5-(3-chloro-5-fluorophenyl)-N-{3-fluorobicyclo[1.1.1]pentan-1-yl}-6-methylpyridine-3-carboxamide] |
